Test results taken from patent US20200101176A1, “Small Highly Uniform Nanomedicine Compositions for Therapeutic, Imaging and Theranostic Applications” (THE REGENTS OF THE UNIVERSITY OF MICHIGAN, priority 2018, published 2020).

Tested on: myocytes
Experiment: PDT of heart tissue, cell death tracked by PI fluorescence
Conditions: in vivo
Text: PI fluorescence is only from myocytes.
FIG. 25 are images showing an embodiment of a non-targeted PDT with Ce6, in accordance with the present inventions.
Turning to FIG. 15, there is shown that PI (a nuclear stain for dead cells) is only present in myocytes (3 different magnified areas).
Turning to FIG. 16, there is shown similar tissue sampling test as FIG. 15, but using non-targeted PDT.

chlorin e6 [Ce6]
damage to vasculature / non-target cells after PDT (PI fluorescence): vasculature damage
damage to vasculature / non-target cells after PDT (PI fluorescence) (listed as untargeted Ce6): kills everything
